Some test systems named below: HS 578T breast; BT-549 breast; MCF7 breast; DU-145 prostate; KM12 colon; A549 NSCLC; SNB-75 CNS; HCC-2998 colon; HL-60(TB) leukemia.
Experiment in all cases: DTP human tumour cell line panel, 48 h

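Values below derive from 48-hour exposures of cells grown in 96-well plates, with endpoints linearly interpolated between the two concentrations bracketing the appropriate inhibition level. TGI marks complete inhibition of growth.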

As for `CCCCCCCCCOC(=O)c1cnc(Cl)cn1`, the TGI (commonly the concentration giving total growth inhibition) in the assay on HS 578T breast came out at 68 µM; with BT-549 breast, 63.3 µM; in the assay on MCF7 breast it was 57.7 µM; in the assay on DU-145 prostate, 33.8 µM; in the assay on KM12 colon, 33.4 µM; in the assay on A549 NSCLC, 64.8 µM. The compound also showed a TGI in the assay with SNB-75 CNS of 51.5 µM.

For `CC1C(c2ccc(F)cc2)c2cc3c(cc2OC1N1CCCC1)OCO3` (stereo not given), the TGI in the assay on HS 578T breast was 54.8 µM; with MCF7 breast, greater than 100 µM; with DU-145 prostate it was greater than 100 µM; in the assay with HCC-2998 colon, greater than 100 µM; with KM12 colon, greater than 100 µM; in the assay with A549 NSCLC, greater than 100 µM. Moreover, the TGI in the assay with SNB-75 CNS is greater than 100 µM.

For the compound `c1ccc2c(c1)ccc1nc(-c3ccc4c(c3)OCO4)c3c(c12)CCCC3`, the TGI is 28.5 µM with HS 578T breast; greater than 100 µM with BT-549 breast; greater than 100 µM in the assay with MCF7 breast; greater than 100 µM in the assay on HCC-2998 colon; 24.2 µM in the assay on KM12 colon; greater than 100 µM in the assay with A549 NSCLC. Further, the TGI in the assay on SNB-75 CNS was greater than 100 µM.

`CN1C2CCC1CC(OC(c1ccccc1)c1ccccc1)C2` (stereo not given): the TGI was 33.5 µM in the assay with HS 578T breast; 36.2 µM with HL-60(TB) leukemia; 41.2 µM in the assay on BT-549 breast; 26.9 µM in the assay with MCF7 breast; greater than 100 µM in the assay with DU-145 prostate; 37.9 µM with KM12 colon. The TGI was 39.7 µM with A549 NSCLC and 72.8 µM in the assay on SNB-75 CNS.

Consider `C[C@]12CC[C@@H]3c4ccc(O)cc4CC[C@H]3[C@@H]1C/C(=C\c1ccc([N+](=O)[O-])cc1)C2=O`, for which the TGI in the assay on BT-549 breast, with MCF7 breast, in the assay on DU-145 prostate, in the assay on HCC-2998 colon, in the assay with KM12 colon and in the assay with A549 NSCLC was greater than 100 µM in each case. In the assay on SNB-75 CNS, the TGI is greater than 100 µM.

Consider `Cn1cc(C(=O)c2nccc3c2cnc2ccccc23)ccc1=O`, for which the TGI with HS 578T breast, with HL-60(TB) leukemia, in the assay with DU-145 prostate, with HCC-2998 colon, with KM12 colon and in the assay with A549 NSCLC was greater than 100 µM in each case. In addition, in the assay with SNB-75 CNS, the TGI is greater than 100 µM.

For the compound `C=C[C@@H]1OC(=O)O[C@H]1CO`, the TGI with HS 578T breast, in the assay on MCF7 breast, with DU-145 prostate, in the assay with KM12 colon, in the assay on A549 NSCLC and in the assay with SNB-75 CNS was greater than 100 µM throughout.

As to `S=c1[nH]nc(COc2ccc3c(c2)CCCC3)n1/N=C/c1ccc(Cl)cc1`, the TGI turned out to be 39.7 µM with HS 578T breast; 40.7 µM with HL-60(TB) leukemia; 31.3 µM with BT-549 breast; 27.9 µM in the assay on MCF7 breast; 33 µM with DU-145 prostate; 31.7 µM in the assay on KM12 colon. In the assay with A549 NSCLC, the TGI amounted to 35.8 µM.

Consider `CC/C(=N\NC(=O)c1cccnc1)c1ccc2c(c1)OCCO2`, for which the TGI with HS 578T breast is 93.7 µM; in the assay on HL-60(TB) leukemia, greater than 100 µM; in the assay on BT-549 breast, greater than 100 µM; in the assay on MCF7 breast it was greater than 100 µM; with DU-145 prostate, greater than 100 µM; with KM12 colon, greater than 100 µM. For the same compound, the TGI in the assay on A549 NSCLC and with SNB-75 CNS was greater than 100 µM in each case.

Turning to `CCC1(C)C=Cc2c(cc(OC)c3c(=O)c4ccccc4n(C)c23)O1` (stereo not given), the TGI in the assay on HS 578T breast, with BT-549 breast, in the assay on MCF7 breast, in the assay on DU-145 prostate, with HCC-2998 colon and in the assay on KM12 colon was greater than 10 µM throughout. Besides, the TGI in the assay on A549 NSCLC and with SNB-75 CNS was greater than 10 µM in each case.

With `COc1ccc(/C=C2\C=Cc3ccccc32)cc1OC`, the TGI is 89.6 µM in the assay on HS 578T breast; 69.5 µM in the assay on HL-60(TB) leukemia; greater than 100 µM with MCF7 breast; greater than 100 µM in the assay on DU-145 prostate; greater than 100 µM in the assay on HCC-2998 colon; greater than 100 µM in the assay with KM12 colon. Moreover, the TGI with A549 NSCLC is greater than 100 µM; with SNB-75 CNS, 82.2 µM.

In the case of `CSC1=N/C(=C\c2ccc(C)cc2)C(=O)N1CN1CCOCC1`, the TGI in the assay with HS 578T breast, in the assay with HL-60(TB) leukemia, in the assay on MCF7 breast, with DU-145 prostate, in the assay on KM12 colon and with A549 NSCLC was greater than 100 µM in each case. This compound also returned a TGI in the assay on SNB-75 CNS greater than 100 µM.

Take `CCOC(=O)C1C(=O)CC(O)(OCC)C(C(=O)OCC)C1c1ccc(OC)cc1` (stereo not given): the TGI in the assay with HL-60(TB) leukemia, in the assay on BT-549 breast, in the assay on MCF7 breast, in the assay on DU-145 prostate, in the assay on HCC-2998 colon and in the assay on KM12 colon was greater than 100 µM each time. Further, the TGI in the assay on A549 NSCLC and in the assay with SNB-75 CNS was greater than 100 µM throughout.

With `CNc1ncnc(Sc2nc(N)nc3nc[nH]c23)c1[N+](=O)[O-]`, the TGI in the assay with HS 578T breast is greater than 43.9 µM; in the assay with HL-60(TB) leukemia it was 6.7 µM; in the assay with BT-549 breast, 20.1 µM; with MCF7 breast, greater than 41.5 µM; in the assay with DU-145 prostate, greater than 100 µM; in the assay with KM12 colon, 25.3 µM. Further, the TGI in the assay with A549 NSCLC was greater than 49.2 µM; in the assay with SNB-75 CNS it was 2.83 µM.

For `O=C(OCCN=C1c2ccccc2CCc2ccccc21)c1cc([N+](=O)[O-])cc([N+](=O)[O-])c1`, the TGI in the assay with HS 578T breast is greater than 31.6 µM; in the assay on HL-60(TB) leukemia, greater than 100 µM; with BT-549 breast, greater than 100 µM; in the assay on MCF7 breast, greater than 31.6 µM; in the assay with DU-145 prostate it was greater than 31.6 µM; in the assay with KM12 colon it was greater than 31.6 µM. For the same compound, the TGI in the assay with A549 NSCLC is greater than 31.6 µM; with SNB-75 CNS, greater than 100 µM.

As to `CCCC1NC(=O)C(CC(C)C)NC(=O)c2cccc(n2)C(=O)NC(CC(C)C)C(=O)NC(CCC)C(=O)NC(C(=O)OC)CCCCNC1=O` (stereo not given), the TGI with HS 578T breast is greater than 100 µM; with BT-549 breast it was 76 µM; in the assay on MCF7 breast it was greater than 100 µM; with DU-145 prostate, greater than 100 µM; in the assay on HCC-2998 colon, 41.7 µM; in the assay on KM12 colon, 59.3 µM. The TGI was greater than 100 µM in the assay with A549 NSCLC and 57.7 µM in the assay on SNB-75 CNS.

Regarding `CN(C1=NCCO1)c1cccc2ccccc12`, the TGI with HS 578T breast, in the assay with HL-60(TB) leukemia, in the assay on MCF7 breast, in the assay with DU-145 prostate, with HCC-2998 colon and in the assay with KM12 colon was greater than 10 µM in each case. For the same compound, the TGI in the assay with A549 NSCLC and with SNB-75 CNS was greater than 10 µM in each case.

For `CC(=O)/C(C=Nc1c(C)n(C)n(-c2ccccc2)c1=O)=C(/C)O`, the total growth inhibition concentration (TGI) in the assay on HL-60(TB) leukemia, in the assay on BT-549 breast, in the assay on MCF7 breast, with DU-145 prostate, in the assay with HCC-2998 colon and with KM12 colon was greater than 100 µM throughout. The TGI in the assay on A549 NSCLC and in the assay with SNB-75 CNS was greater than 100 µM throughout.

For the compound `O=C(NN=C1CCN(Cc2ccccc2)CC1)C(O)(c1ccccc1)c1ccccc1`, the TGI with HS 578T breast, in the assay with HL-60(TB) leukemia, with MCF7 breast, in the assay on DU-145 prostate, in the assay with HCC-2998 colon and with KM12 colon was greater than 100 µM throughout. In addition, the TGI in the assay on A549 NSCLC and in the assay with SNB-75 CNS was greater than 100 µM in each case.

As to `CN(C)CCCNc1c(O)c2c(c(O)c1Cl)C(=O)C=CC2=O`, the TGI is 3.65 µM in the assay with HS 578T breast; 2.94 µM with BT-549 breast; 3.22 µM in the assay on MCF7 breast; 3.27 µM with DU-145 prostate; 3.22 µM with HCC-2998 colon; greater than 10 µM in the assay on KM12 colon. Also, the TGI was 3.52 µM with A549 NSCLC and greater than 10 µM in the assay on SNB-75 CNS.

Consider `COc1ccc2c(c1)C(N)CC2=O` (stereo not given), for which the TGI in the assay with HS 578T breast, with BT-549 breast, with MCF7 breast, with DU-145 prostate, with HCC-2998 colon and in the assay on KM12 colon was greater than 100 µM each time. Also, the TGI with A549 NSCLC is 38.2 µM; with SNB-75 CNS it was greater than 100 µM.

Take `CSc1ccc2c(cc1=O)[C@@H](NC(C)=O)CCc1cc(O)c(O)c(O)c1-2`: the TGI is greater than 100 µM with HL-60(TB) leukemia; 56.9 µM with BT-549 breast; 19.8 µM with MCF7 breast; greater than 100 µM in the assay with DU-145 prostate; 50.5 µM in the assay with HCC-2998 colon; 41.4 µM in the assay with KM12 colon. The values for the TGI with A549 NSCLC and in the assay on SNB-75 CNS were 45 µM and 53 µM, respectively.

On to `CCOC(=O)c1c(C)n(Cc2ccccc2)c(=O)c2ccccc2c(=O)c2c(=O)ccc(=O)c1=2`, for which the concentration for total growth inhibition (TGI) in the assay on HS 578T breast, in the assay on HL-60(TB) leukemia, in the assay with DU-145 prostate, in the assay with HCC-2998 colon, in the assay on KM12 colon and in the assay on A549 NSCLC was greater than 100 µM each time. Also, the TGI in the assay on SNB-75 CNS is greater than 100 µM.

On to `COc1cc(NS(C)(=O)=O)ccc1NCc1cnc2ccc3[nH]c(C)ccc3c12`, for which the TGI in the assay on HS 578T breast was greater than 100 µM; in the assay on HL-60(TB) leukemia it was 34.9 µM; in the assay with BT-549 breast, greater than 100 µM; with MCF7 breast, greater than 100 µM; in the assay with DU-145 prostate, 89.1 µM; in the assay with KM12 colon it was greater than 100 µM. For the same compound, the figures for the TGI in the assay on A549 NSCLC and in the assay with SNB-75 CNS were greater than 100 µM and 78.4 µM, respectively.

With `NC(=O)NC(=O)c1cnccn1`, the TGI in the assay on MCF7 breast, with DU-145 prostate, in the assay with HCC-2998 colon, with KM12 colon and in the assay with A549 NSCLC was greater than 100 µM each time.

`CC(=O)ON(OC(C)=O)c1ccc(C)cc1`: the TGI with HS 578T breast, in the assay with BT-549 breast, with MCF7 breast, with DU-145 prostate, in the assay on HCC-2998 colon and in the assay with KM12 colon was greater than 100 µM in each case. For the same compound, the TGI in the assay on A549 NSCLC and in the assay on SNB-75 CNS was greater than 100 µM in each case.
